Patent US7635697B2, “Farnesyl protein transferase inhibitors and methods for treating proliferative diseases” (Schering Corporation, priority 2004, dated 2009)
Values joined by “and” are separate entries in the source; they are usually repeats but may differ in a detail not shown here. Equal values may be shown once.

Assays:
Human tumor cells = test: Soft Agar Assay (anchorage-independent growth, colony count); type: cell-based; conditions: ranges are stated for a listed group of compounds, range ends given as 'about <' / 'about >'
Experimental: Anchorage-independent growth is a characteristic of tumorigenic cell lines. Human tumor cells can be suspended in growth medium containing 0.3% agarose and an indicated concentration of a farnesyl transferase inhibitor. The solution can be overlayed onto growth medium solidified with 0.6% agarose containing the same concentration of farnesyl transferase inhibitor as the top layer. After the top layer is solidified, plates can be incubated for 10-16 days at 37° C. under 5% CO2 to allow colony outgrowth. After incubation, the colonies can be stained by overlaying the agar with a solution of MTT (3-[4,5-dimethyl-thiazol-2-yl]-2,5-diphenyltetrazolium bromide, Thiazolyl blue) (1 mg/mL in PBS). Colonies can be counted and the IC50's can be determined.

[1] = target: purified human farnesyl protein transferase (Homo sapiens, UniProt P49354+P49356); test: FPT activity: transfer of [3H] farnesyl from [3H] farnesyl pyrophosphate to biotinylated H-ras peptide (SPA); type: biochemical; conditions: ranges are stated for a listed group of compounds; range ends given as 'about <' / 'about >'
Experimental: FPT activity was determined by measuring the transfer of [^3H] farnesyl from [^3H] farnesyl pyrophosphate to a biotinylated peptide derived from the C-terminus of H-ras (biotin-CVLS). The reaction mixture contains: 50 mM Tris pH7.7, 5 mM MgCl2, 5 μM Zn^++, 5 mM DTT, 0.1% Triton-X, 0.05 μM peptide, 0.03 nM purified human farnesyl protein transferase, 0.180 μM [^3H] farnesyl pyrophosphate, plus the indicated concentration of tricyclic compound or vehicle control in a total volume of 100 μl. The reaction was incubated in a Vortemp shaking incubator at 37° C., 45 RPM for 60 minutes and stopped with 150 μl of 0.25 M EDTA containing 0.5% BSA and 1.3 mg/ml Streptavidin SPA beads. Radioactivity was measured in a Wallach 1450 Microbeta liquid scintillation counter. Percent inhibition was calculated relative to the vehicle control.

Compound	IC50 (Human tumor cells; Homo sapiens) [pM]	IC50 [1]	IC50 (Human tumor cells) [pM]
Cc1cn(Cc2cccc(NC(=O)C3CN([C@@H]4c5ccc(Cl)cc5CCc5cccnc54)CCN3C(=O)CC3CCN(C(N)=O)CC3)c2)cn1 (some centres unmarked) [(30.1)]	300 to 50000	50 to 8900 pM and 50 to 2700 pM and 50 to 1200 pM	
CC(C)(C)OC(=O)N1CCN([C@@H]2c3ccc(Cl)cc3CCc3cccnc32)C(C(=O)Nc2cccc(Cn3ccnc3)c2)C1 (some centres unmarked) [(40.2)]	300 to 50000		
Cc1cn(Cc2cccc(NC(=O)C3CN([C@@H]4c5ccc(Cl)cc5CCc5cccnc54)CCN3C(=O)OC3CCCCC3)c2)cn1 (some centres unmarked) [(22.1)]	300 to 50000	50 to 8900 pM and 50 to 2700 pM and 50 to 1200 pM	
CC(C)(C)OC(=O)N1CCN(C2c3ccc(Cl)cc3CCc3cccnc32)C(C(=O)Nc2cccc(Cn3ccnc3)c2)C1 (centres unmarked) [(40.1)]	300 to 50000		
O=C(Nc1cccc(Cn2ccnc2)c1)[C@@H]1CN(C2c3ccc(Cl)cc3CCc3cc(Br)cnc32)CCN1 (some centres unmarked) [(12.2)]		50 to 8900 pM	
Cc1cn(Cc2cccc(NC(=O)C3CN(C4c5ccc(Cl)cc5CCc5cccnc54)CCN3S(C)(=O)=O)c2)cn1 (centres unmarked) [(29.1)]		50 to 8900 pM and 50 to 2700 pM and 50 to 1200 pM	
O=C(Nc1cccc(Cn2ccnc2)c1)[C@H]1CNCCN1C1c2ccc(Cl)cc2CCc2cccnc21 (some centres unmarked) [(14.3)]	300 to 50000	50 to 8900 pM	
Cc1cn(Cc2cccc(NC(=O)C3CN(C4c5ccc(Cl)cc5CCc5cccnc54)CCN3C(=O)Nc3ccc(Cl)cc3)c2)cn1 (centres unmarked) [(27.1)]		50 to 8900 pM	
O=C(Nc1cccc(Cn2ccnc2)c1)[C@H]1CN(C2c3ccc(Cl)cc3CCc3cccnc32)CCN1 (mixture of isomers) [(14.2)]	300 to 50000	50 to 8900 pM	
O=C(Nc1cccc(Cn2ccnc2)c1)C1CN(C2c3ccc(Cl)cc3CCc3cccnc32)CCN1C(=O)OC1CCCCC1 (centres unmarked) [(15.1)]	300 to 50000	50 to 8900 pM and 50 to 2700 pM and 50 to 1200 pM	
O=C(Nc1cccc(Cn2ccnc2)c1)[C@H]1CN(C2c3ccc(Cl)cc3CCc3cccnc32)CCN1C1c2ccc(Cl)cc2CCc2cccnc21 (some centres unmarked) [(14.1)]	300 to 50000		
O=C(Nc1cccc(Cn2ccnc2)c1)[C@@H]1CN(C2c3ccc(Cl)cc3CCc3cc(Br)cnc32)CCN1C1c2ccc(Cl)cc2CCc2cc(Br)cnc21 (some centres unmarked) [(12.1)]		50 to 8900 pM	
Cc1cncn1Cc1cccc(NC(=O)C2CN(C3c4ccc(Cl)cc4CCc4cccnc43)CCN2C(=O)OC2CCCCC2)c1 (single isomer, unassigned) [(32.2)]		50 to 8900 pM	
Cc1cncn1Cc1cccc(NC(=O)C2CN(C3c4ccc(Cl)cc4CCc4cccnc43)CCN2C(=O)OC2CCCCC2)c1 (single isomer, unassigned) [(32.1)]	300 to 50000	50 to 8900 pM and 50 to 2700 pM and 50 to 1200 pM	
NC(=O)N1CCC(CC(=O)N2CCN(C3c4ccc(Cl)cc4CCc4cccnc43)C(C(=O)Nc3cccc(Cn4ccnc4)c3)C2)CC1 (centres unmarked) [(45.1)]	300 to 50000	50 to 8900 pM	
Cc1cn(Cc2cccc(NC(=O)C3CN(C4c5ccc(Cl)cc5CCc5cc(Br)cnc54)CCN3)c2)cn1 (centres unmarked) [(4.3)]	300 to 50000	50 to 8900 pM	
Cc1cn(Cc2cccc(NC(=O)C3CN(C4c5ccc(Cl)cc5CCc5cccnc54)CCN3C(=O)Cc3ccc(Cl)cc3)c2)cn1 (centres unmarked) [(28.1)]	300 to 50000	50 to 8900 pM and 50 to 2700 pM and 50 to 1200 pM	
O=C(Nc1cccc(Cn2ccnc2)c1)C1CN([C@@H]2c3ccc(Cl)cc3CCc3cccnc32)CCN1C(=O)OC1CCCCC1 (some centres unmarked) [(15.2)]	300 to 50000	50 to 8900 pM and 50 to 2700 pM and 50 to 1200 pM	
Cc1cn(CCc2ccccc2NC(=O)[C@H]2CN([C@H]3c4ccc(Cl)cc4CCc4cccnc43)CCN2C(=O)OC2CCCCC2)cn1 [(47.1)]		50 to 8900 pM	
Cc1cn(Cc2cccc(NC(=O)C3CN(C4c5ccc(Cl)cc5CCc5cc(Br)cnc54)CCN3C(=O)NC3CCCCC3)c2)cn1 (centres unmarked) [(6.1)]	300 to 50000	50 to 8900 pM and 50 to 2700 pM	
Cc1cn(Cc2cccc(NC(=O)C3CN(C4c5ccc(Cl)cc5CCc5cccnc54)CCN3C(=O)NC3CCCCC3)c2)cn1 (centres unmarked) [(26.1)]		50 to 8900 pM and 50 to 2700 pM and 50 to 1200 pM	
Cc1cn(Cc2cccc(NC(=O)C3CN([C@@H]4c5ccc(Cl)cc5CCc5cc(Br)cnc54)CCN3)c2)cn1 (some centres unmarked) [(4.2)]	300 to 50000	50 to 8900 pM	
Cc1cn(Cc2cccc(NC(=O)C3CN([C@@H]4c5ccc(Cl)cc5CCc5cc(Br)cnc54)CCN3C(=O)NC3CCCCC3)c2)cn1 (some centres unmarked) [(5.1)]	300 to 50000	50 to 8900 pM and 50 to 2700 pM	
CC(C)(C)OC(=O)N1CCN(C2c3ccc(Cl)cc3CCc3cc(Br)cnc32)CC1C(=O)Nc1cccc(Cn2ccnc2)c1 (single isomer, unassigned) [(1.4)]		50 to 8900 pM and 50 to 2700 pM and 50 to 1200 pM	
Cc1cn(Cc2cccc(NC(=O)C3CN(C4c5ccc(Cl)cc5CCc5cccnc54)CCN3C(=O)OC3CCCCC3)c2)cn1 (centres unmarked) [(21.1)]	300 to 50000	50 to 8900 pM and 50 to 2700 pM and 50 to 1200 pM	
CC(C)(C)OC(=O)N1CCN(C2c3ccc(Cl)cc3CCc3cc(Br)cnc32)CC1C(=O)Nc1cccc(Cn2ccnc2)c1 (single isomer, unassigned) [(1.3)]	300 to 50000	50 to 8900 pM and 50 to 2700 pM and 50 to 1200 pM	
Cc1nccn1Cc1cccc(NC(=O)C2CN(C3c4ccc(Cl)cc4CCc4cccnc43)CCN2C(=O)OC2CCCCC2)c1 (centres unmarked) [(31.1)]			< 500
O=C(C1CN(C2c3ccc(Cl)cc3CCc3cccnc32)CCN1C(=O)OC1CCCCC1)N(Cc1ccccc1)c1cccc(Cn2ccnc2)c1 (centres unmarked) [(16.1)]	300 to 50000	50 to 8900 pM	
